Laboratory results taken from the CheMixHub viscosity set.

Test: xn = mol fraction of the nth substance listed

CCOCCO + O
viscosity [mPa·s]
Settings	101 kPa	101.33 kPa
293.15 K, x1 = 0.02202	1.422	–
293.15 K, x1 = 0.04761	2.02	–
293.15 K, x1 = 0.07883	2.731	–
293.15 K, x1 = 0.1177	3.402	–
293.15 K, x1 = 0.1666	3.943	–
293.15 K, x1 = 0.2304	4.205	–
293.15 K, x1 = 0.318	4.219	–
293.15 K, x1 = 0.4441	3.838	–
293.15 K, x1 = 0.5303	3.471	–
293.15 K, x1 = 0.6418	3.081	–
293.15 K, x1 = 0.7202	2.836	–
293.15 K, x1 = 0.8271	2.502	–
293.15 K, x1 = 0.9078	2.27	–
298.15 K, x1 = 0.0104	–	1.04
298.15 K, x1 = 0.0217	–	1.25
298.15 K, x1 = 0.0341	–	1.44
298.15 K, x1 = 0.0476	–	1.7
298.15 K, x1 = 0.0625	–	1.97
298.15 K, x1 = 0.0789	–	2.26
298.15 K, x1 = 0.0972	–	2.54
298.15 K, x1 = 0.1176	–	2.8
298.15 K, x1 = 0.1406	–	3.05
298.15 K, x1 = 0.1666	–	3.24
298.15 K, x1 = 0.1964	–	3.38
298.15 K, x1 = 0.2307	–	3.48
298.15 K, x1 = 0.2707	–	3.47
298.15 K, x1 = 0.3181	–	3.45
298.15 K, x1 = 0.3749	–	3.33
298.15 K, x1 = 0.4443	–	3.14
298.15 K, x1 = 0.5311	–	2.89
298.15 K, x1 = 0.6428	–	2.58
298.15 K, x1 = 0.7916	–	2.19
298.15 K, x2 = 0.11	–	1.991
298.15 K, x2 = 0.2089	–	2.215
298.15 K, x2 = 0.294	–	2.441
298.15 K, x2 = 0.4058	–	2.765
298.15 K, x2 = 0.5043	–	3.031
298.15 K, x2 = 0.5995	–	3.311
298.15 K, x2 = 0.7033	–	3.504
298.15 K, x2 = 0.8037	–	3.376
298.15 K, x2 = 0.902	–	2.55
303.15 K, x1 = 0.0104	–	0.92
303.15 K, x1 = 0.0217	–	1.11
303.15 K, x1 = 0.02202	1.097	–
303.15 K, x1 = 0.0341	–	1.27
303.15 K, x1 = 0.0476	–	1.5
303.15 K, x1 = 0.04761	1.485	–
303.15 K, x1 = 0.0625	–	1.72
303.15 K, x1 = 0.07883	1.928	–
303.15 K, x1 = 0.0789	–	1.96
303.15 K, x1 = 0.0972	–	2.18
303.15 K, x1 = 0.1176	–	2.4
303.15 K, x1 = 0.1177	2.355	–
303.15 K, x1 = 0.1406	–	2.61
303.15 K, x1 = 0.1666	2.703	2.78
303.15 K, x1 = 0.1964	–	2.9
303.15 K, x1 = 0.2304	2.92	–
303.15 K, x1 = 0.2307	–	3
303.15 K, x1 = 0.2707	–	3.03
303.15 K, x1 = 0.318	2.951	–
303.15 K, x1 = 0.3181	–	3.02
303.15 K, x1 = 0.3749	–	2.93
303.15 K, x1 = 0.4443	–	2.77
303.15 K, x1 = 0.5303	2.547	–
303.15 K, x1 = 0.5311	–	2.56
303.15 K, x1 = 0.6418	2.28	–
303.15 K, x1 = 0.6428	–	2.31
303.15 K, x1 = 0.7202	2.126	–
303.15 K, x1 = 0.7916	–	1.97
303.15 K, x1 = 0.8271	1.912	–
303.15 K, x1 = 0.9078	1.764	–
308.15 K, x1 = 0.1406	–	2.24
308.15 K, x1 = 0.1666	–	2.38
308.15 K, x1 = 0.1964	–	2.49
308.15 K, x1 = 0.2307	–	2.58
308.15 K, x1 = 0.2707	–	2.62
308.15 K, x1 = 0.3181	–	2.61
308.15 K, x1 = 0.3749	–	2.55
308.15 K, x1 = 0.4443	–	2.43
308.15 K, x1 = 0.5311	–	2.26
308.15 K, x1 = 0.6428	–	2.04
308.15 K, x1 = 0.7916	–	1.76
308.15 K, x2 = 0.1041	–	1.418
308.15 K, x2 = 0.1944	–	1.621
308.15 K, x2 = 0.2933	–	1.785
308.15 K, x2 = 0.4988	–	2.148
308.15 K, x2 = 0.5964	–	2.307
308.15 K, x2 = 0.699	–	2.385
308.15 K, x2 = 0.7918	–	2.32
308.15 K, x2 = 0.8469	–	2.111
308.15 K, x2 = 0.8976	–	1.787
308.15 K, x2 = 0.9491	–	1.279
313.15 K, x1 = 0.02202	0.8665	–
313.15 K, x1 = 0.04761	1.14	–
313.15 K, x1 = 0.07883	1.456	–
313.15 K, x1 = 0.1177	1.727	–
313.15 K, x1 = 0.1666	1.967	–
313.15 K, x1 = 0.2304	2.124	–
313.15 K, x1 = 0.318	2.14	–
313.15 K, x1 = 0.4441	2.011	–
313.15 K, x1 = 0.5303	1.9	–
313.15 K, x1 = 0.6418	1.731	–
313.15 K, x1 = 0.7202	1.614	–
313.15 K, x1 = 0.8271	1.491	–
313.15 K, x1 = 0.9078	1.399	–
323.15 K, x1 = 0.02202	0.6974	–
323.15 K, x1 = 0.04761	0.8748	–
323.15 K, x1 = 0.07883	1.105	–
323.15 K, x1 = 0.1177	1.32	–
323.15 K, x1 = 0.1666	1.479	–
323.15 K, x1 = 0.2304	1.613	–
323.15 K, x1 = 0.318	1.656	–
323.15 K, x1 = 0.4441	1.591	–
323.15 K, x1 = 0.5303	1.514	–
323.15 K, x1 = 0.6418	1.398	–
323.15 K, x1 = 0.7202	1.324	–
323.15 K, x1 = 0.8271	1.212	–
323.15 K, x1 = 0.9078	1.133	–

CNCCO + O
viscosity [mPa·s]
Settings	293.15 K	298.15 K	303.15 K	308.15 K	313.15 K	318.15 K	323.15 K
100 kPa, x2 = 0.51	26.3	–	–	–	9.61	–	6.36
101 kPa, x1 = 0.0844	–	–	2.541	2.165	1.868	1.625	–
101 kPa, x1 = 0.1894	–	–	6.505	5.276	4.347	3.612	–
101 kPa, x1 = 0.3001	–	–	11.33	8.968	7.206	5.87	–
101 kPa, x1 = 0.4014	–	–	14.46	11.33	9.042	7.311	–
101 kPa, x1 = 0.448	–	–	15.21	11.93	9.52	–	–
101 kPa, x1 = 0.5016	–	–	15.62	12.24	9.767	–	–
101 kPa, x1 = 0.5474	–	–	15.45	12.14	9.666	–	–
101 kPa, x1 = 0.6004	–	–	15.17	11.95	9.57	–	–
101 kPa, x1 = 0.7021	–	–	13.66	10.84	8.761	–	–
101 kPa, x1 = 0.7975	–	–	11.89	9.564	7.81	–	–
101 kPa, x1 = 0.9048	–	–	10.09	8.218	6.771	–	–
101.3 kPa, x1 = 0.0125	1.234	1.086	0.963	0.863	0.778	0.705	0.644
101.3 kPa, x1 = 0.138	6.87	5.53	4.42	3.65	3.07	2.61	2.25
101.3 kPa, x1 = 0.265	16.7	12.81	–	7.99	6.46	5.31	4.41
101.3 kPa, x2 = 0.3167	22.4	17.24	13.51	10.76	8.699	7.129	5.914
101.3 kPa, x2 = 0.5104	27.48	20.95	16.28	12.83	10.25	8.308	6.794
101.3 kPa, x2 = 0.641	22.98	17.41	13.47	10.6	8.484	6.887	5.67
101.3 kPa, x2 = 0.7356	17.61	–	10.58	8.433	6.828	5.626	4.688
101.3 kPa, x2 = 0.8064	10.8	8.438	6.716	5.451	4.498	3.765	3.181
101.3 kPa, x2 = 0.8623	6.917	5.549	4.52	3.745	3.143	2.663	2.282
101.3 kPa, x2 = 0.9067	4.02	–	2.789	2.363	2.02	1.75	1.536
101.3 kPa, x2 = 0.9434	2.462	2.089	1.794	1.557	1.364	1.206	1.076
101.3 kPa, x2 = 0.974	1.532	1.334	1.172	1.041	0.929	0.838	0.759
101.33 kPa, x1 = 0.01	–	1.089	0.97	–	0.785	–	–
101.33 kPa, x1 = 0.0217	–	1.366	1.198	–	0.949	–	–
101.33 kPa, x1 = 0.0333	–	1.692	1.469	–	1.133	–	–
101.33 kPa, x1 = 0.0467	–	2.146	1.836	–	1.384	–	–
101.33 kPa, x1 = 0.0622	–	2.759	2.315	–	–	–	–
101.33 kPa, x1 = 0.0772	–	3.465	2.815	–	2.049	–	–
101.33 kPa, x1 = 0.1167	–	5.735	4.525	–	3.075	–	–
101.33 kPa, x1 = 0.1656	–	9.455	7.046	–	4.573	–	–
101.33 kPa, x1 = 0.2308	–	14.59	10.71	–	6.551	–	–
101.33 kPa, x1 = 0.3169	–	19.66	14.66	–	8.805	–	–
101.33 kPa, x1 = 0.3893	–	21.8	16.85	–	10.24	–	–
101.33 kPa, x1 = 0.449	–	22.25	17.79	–	10.9	–	–
101.33 kPa, x1 = 0.5356	–	22.31	17.99	–	11.21	–	–
101.33 kPa, x1 = 0.6845	–	21.05	16.24	–	10.16	–	–
101.33 kPa, x1 = 0.8213	–	17.45	13.21	–	8.401	–	–
101.33 kPa, x1 = 0.9202	–	13.96	11	–	7.227	–	–
101.33 kPa, x1 = 0.956	–	12.96	10.26	–	6.823	–	–
